Source: patent EP0090510A2, “O-carbamoyl salicylates and their preparation” (Council of Scientific and Industrial Research, priority 1983, dated 1983)

Key:
Type in all cases: in vivo
Conditions in all cases: Dose : 200 mg/kg
[1] = Anti-inflammatory, edema test
[2] = Analgesic protection, writhing test; parameters: unit not given here
[3] = Anti-inflammatory, granuloma test

| Compound | Anti-inflammatory %Inhibition Raw edema [1] [%] | Analgesic protection Writhing [2] | Anti-inflammatory %Inhibition Granuloma [3] [%] |
| --- | --- | --- | --- |
| NC(=O)Oc1ccccc1C(=O)Oc1ccccc1 [compound 4] | 93.19 | 72.00 | 57.65 |
| NC(=O)Oc1ccccc1C(=O)Oc1ccccc1Cl [compound 5] | 35.00 | 70.00 | 35.06 |
| NC(=O)Oc1ccccc1C(=O)Oc1ccc(Cl)cc1 [compound 6] | 37.88 | 83.00 | 41.45 |
| NC(=O)Oc1ccccc1C(=O)Oc1ccc(Cl)cc1Cl [compound 7] | 28.77 | 76.00 | 34.40 |
| Cc1cccc(OC(=O)c2ccccc2OC(N)=O)c1 [compound 8] | 48.50 | 84.00 | 33.25 |
| Cc1cc(OC(=O)c2ccccc2OC(N)=O)ccc1Cl [compound 9] | 28.90 | 68.00 | 24.04 |
| CCCCCCCCCCCCCCCc1cccc(OC(=O)c2ccccc2OC(N)=O)c1 [compound 10] | 12.10 | 45.00 | 33.55 |
| O-Carbamoyl (3-pentadecylphenyl) salicylate [Sl. No. 10] | 34.85 | 67.00 | 19.79 |
| O-Carbamoyl ethylsalicylate [Sl. No. 2] | 76.23 | 69.78 | 46.32 |
| O-Carbamoyl phenylsalicylate [Sl. No. 4] | 34.86 | 95.00 | 28.63 |
